Laboratory results reported in US12201679B2, “Epitope-targeted peptide immunostimulants” (priority 2019, dated 2025).
Like-named read-outs stand apart in the source and are kept apart here. Bridge positions count the residues as written; N and C are the ends. Square brackets hold non-standard residues; d marks the D form. Triazole bridges read from a SMILES are 1,4-linked. Peptide text beside a SMILES is read from it. * marks the point of attachment. Biotin = O=C1N[C@H]2[C@H](CS[C@H]2CCCCC(=O)*)N1; PEG10 = NCCOCCOCCOCCOCCOCCOCCOCCOCCOCCOCCC(=O)O; Lys(N3) = [N-]=[N+]=NCCCC[C@H](N)C(=O)O; Orn(N3) = [N-]=[N+]=NCCC[C@H](N)C(=O)O; Phe(4-F) = N[C@@H](Cc1ccc(F)cc1)C(=O)O; PEG5 = NCCOCCOCCOCCOCCOCCC(=O)O; Pra = C#CC[C@H](N)C(=O)O

Assays:
[1] = target: full-length recombinant MrkA protein (Klebsiella pneumoniae, UniProt P12267); type: binding; settings: for affinities to MrkA: ELISA, stated as 'likely'; for binding to full-length MrkA compared to cy(LLFFF): sandwich ELISA, alanine scan and analogues
Description: HPraGly is present before X1 in each peptide and Az4 follows X5 in each peptide.

[2] = Isocratic point, elution from C18 prep-scale column; type: physicochemical; settings: elution from C18 column
Protocol: PCC compounds were purified on a Waters Autopurification system, which isolated compounds based on MS peaks corresponding to protonated [M+1H]^+ and [M+2H]^2+, and/or sodium adducts [M+Na]^+ and [M+2Na]^2+. The isocratic points of PCCs were determined based on the elution of the compound from a C18 prep-scale column. Synthetic epitopes were either purified on the Waters Autopurification System, or by semi-preparative HPLC and then using matrix-assisted laser desorption/ionization mass spectroscopy to identify fractions with the desired m/z ratio. The resulting peptides were lyophilized, the yield determined by mass difference or UV-visible absorbance, and resuspended at a concentration of up to 10 mM peptide in DMSO. Peptides were stored at −80° C. before thawing for each use.

CC(C)C[C@@H]1NC(=O)[C@@H](NC(=O)CCOCCOCCOCCOCCOCCOCCOCCOCCOCCOCCNC(=O)CCCC[C@@H]2SC[C@@H]3NC(=O)N[C@@H]32)Cc2cn(nn2)CCCC[C@@H](C(N)=O)NC(=O)[C@H](Cc2ccccc2)NC(=O)[C@H](Cc2ccccc2)NC(=O)[C@H](Cc2ccccc2)NC(=O)[C@H](CC(C)C)NC1=O [Ref. compound] ({Biotin-PEG10}-[Pra]LLFFF[Lys(N3)]-NH2; triazole 1-7)
Relative affinity (ratio of ELISA signal versus cy(LLFFF)) ([1]; ELISA 1, [MrkA] for ELISA N/A): 1.00 | Relative affinity (ratio of ELISA signal versus cy(LLFFF)) ([1]; ELISA 2, [MrkA] 25 nM): 1.00 | Relative affinity (ratio of ELISA signal versus cy(LLFFF)) ([1]; ELISA 3, [MrkA] 50 nM): 1.00 | Relative affinity (ratio of ELISA signal versus cy(LLFFF)) ([1]; ELISA 4, [MrkA] 100 nM): 1.00 | Relative affinity (ratio of ELISA signal versus cy(LLFFF)) ([1]; ELISA 5, [MrkA] 25 nM): 1.00 | Relative affinity (ratio of ELISA signal versus cy(LLFFF)) ([1]; ELISA 6, [MrkA] 25 nM): 1.00 | Isocratic point (%) ([2]; N-terminal tag Bio-Peg10-peg10-): 74.53% | Isocratic point (%) ([2]; N-terminal tag Bio-peg5-): 78.85% | Isocratic point (%) ([2]; N-terminal tag Bio-peg10-): 75.88%

CC(C)C[C@@H]1NC(=O)[C@H](C)NC(=O)[C@@H](NC(=O)CCOCCOCCOCCOCCOCCOCCOCCOCCOCCOCCNC(=O)CCCC[C@@H]2SC[C@@H]3NC(=O)N[C@@H]32)Cc2cn(nn2)CCCC[C@@H](C(N)=O)NC(=O)[C@H](Cc2ccccc2)NC(=O)[C@H](Cc2ccccc2)NC(=O)[C@H](Cc2ccccc2)NC1=O [compound 2] ({Biotin-PEG10}-[Pra]ALFFF[Lys(N3)]-NH2; triazole 1-7)
Relative affinity (ratio of ELISA signal versus cy(LLFFF)) ([1]; ELISA 2, [MrkA] 25 nM): 0.53 | Isocratic point (%) [2]: 65.55%

CC(C)C[C@@H]1NC(=O)[C@@H](NC(=O)CCOCCOCCOCCOCCOCCOCCOCCOCCOCCOCCNC(=O)CCCC[C@@H]2SC[C@@H]3NC(=O)N[C@@H]32)Cc2cn(nn2)CCCC[C@@H](C(N)=O)NC(=O)[C@H](Cc2ccccc2)NC(=O)[C@H](Cc2ccccc2)NC(=O)[C@H](Cc2ccccc2)NC(=O)[C@H](C)NC1=O [compound 3] ({Biotin-PEG10}-[Pra]LAFFF[Lys(N3)]-NH2; triazole 1-7)
Relative affinity (ratio of ELISA signal versus cy(LLFFF)) ([1]; ELISA 2, [MrkA] 25 nM): 0.26 | Isocratic point (%) [2]: 66.00%

CC(C)C[C@@H]1NC(=O)[C@H](CC(C)C)NC(=O)[C@@H](NC(=O)CCOCCOCCOCCOCCOCCOCCOCCOCCOCCOCCNC(=O)CCCC[C@@H]2SC[C@@H]3NC(=O)N[C@@H]32)Cc2cn(nn2)CCCC[C@@H](C(N)=O)NC(=O)[C@H](Cc2ccccc2)NC(=O)[C@H](Cc2ccccc2)NC(=O)[C@H](C)NC1=O [compound 4] ({Biotin-PEG10}-[Pra]LLAFF[Lys(N3)]-NH2; triazole 1-7)
Relative affinity (ratio of ELISA signal versus cy(LLFFF)) ([1]; ELISA 2, [MrkA] 25 nM): 0.59 | Isocratic point (%) [2]: 70.97%

CC(C)C[C@@H]1NC(=O)[C@@H](NC(=O)CCOCCOCCOCCOCCOCCOCCOCCOCCOCCOCCNC(=O)CCCC[C@@H]2SC[C@@H]3NC(=O)N[C@@H]32)Cc2cn(nn2)CCCC[C@@H](C(N)=O)NC(=O)[C@H](Cc2ccccc2)NC(=O)[C@H](C)NC(=O)[C@H](Cc2ccccc2)NC(=O)[C@H](CC(C)C)NC1=O [compound 5] ({Biotin-PEG10}-[Pra]LLFAF[Lys(N3)]-NH2; triazole 1-7)
Relative affinity (ratio of ELISA signal versus cy(LLFFF)) ([1]; ELISA 2, [MrkA] 25 nM): 0.10 | Isocratic point (%) [2]: 66.00%

CC(C)C[C@@H]1NC(=O)[C@@H](NC(=O)CCOCCOCCOCCOCCOCCOCCOCCOCCOCCOCCNC(=O)CCCC[C@@H]2SC[C@@H]3NC(=O)N[C@@H]32)CCCCn2cc(nn2)C[C@@H](C(N)=O)NC(=O)[C@H](C)NC(=O)[C@H](Cc2ccccc2)NC(=O)[C@H](Cc2ccccc2)NC(=O)[C@H](CC(C)C)NC1=O [compound 6] ({Biotin-PEG10}-[Lys(N3)]LLFFA[Pra]-NH2; triazole 1-7)
Relative affinity (ratio of ELISA signal versus cy(LLFFF)) ([1]; ELISA 2, [MrkA] 25 nM): 0.04 | Isocratic point (%) [2]: 64.43%

C[C@@H]1NC(=O)[C@H](C)NC(=O)[C@@H](NC(=O)CCOCCOCCOCCOCCOCCOCCOCCOCCOCCOCCNC(=O)CCCC[C@@H]2SC[C@@H]3NC(=O)N[C@@H]32)Cc2cn(nn2)CCCC[C@@H](C(N)=O)NC(=O)[C@H](Cc2ccccc2)NC(=O)[C@H](Cc2ccccc2)NC(=O)[C@H](Cc2ccccc2)NC1=O [compound 7] ({Biotin-PEG10}-[Pra]AAFFF[Lys(N3)]-NH2; triazole 1-7)
Relative affinity (ratio of ELISA signal versus cy(LLFFF)) ([1]; ELISA 3, [MrkA] 50 nM): 0.15 | Isocratic point (%) [2]: 54.65%

CC(C)C[C@@H]1NC(=O)[C@@H](NC(=O)CCOCCOCCOCCOCCOCCOCCOCCOCCOCCOCCNC(=O)CCCC[C@@H]2SC[C@@H]3NC(=O)N[C@@H]32)Cc2cn(nn2)CCCC[C@@H](C(N)=O)NC(=O)[C@H](Cc2ccccc2)NC(=O)[C@H](Cc2ccccc2)NC(=O)[C@H](Cc2ccccc2)NC1=O [compound 8] ({Biotin-PEG10}-[Pra]LFFF[Lys(N3)]-NH2; triazole 1-6)
Relative affinity (ratio of ELISA signal versus cy(LLFFF)) ([1]; ELISA 3, [MrkA] 50 nM): 0.46 | Isocratic point (%) [2]: 61.84%

CC(C)C[C@@H]1NC(=O)[C@@H](NC(=O)CCOCCOCCOCCOCCOCCOCCOCCOCCOCCOCCNC(=O)CCCC[C@@H]2SC[C@@H]3NC(=O)N[C@@H]32)Cc2cn(nn2)CCC[C@@H](C(N)=O)NC(=O)[C@H](Cc2ccccc2)NC(=O)[C@H](Cc2ccccc2)NC(=O)[C@H](Cc2ccccc2)NC(=O)[C@H](CC(C)C)NC1=O [compound 10] ({Biotin-PEG10}-[Pra]LLFFF[Orn(N3)]-NH2; triazole 1-7)
Relative affinity (ratio of ELISA signal versus cy(LLFFF)) ([1]; ELISA 3, [MrkA] 50 nM): 0.89 | Isocratic point (%) [2]: 76.89%

CC(C)C[C@@H]1NC(=O)[C@@H](NC(=O)CCOCCOCCOCCOCCOCCOCCOCCOCCOCCOCCNC(=O)CCCC[C@@H]2SC[C@@H]3NC(=O)N[C@@H]32)Cc2cn(nn2)CCCC[C@@H](C(N)=O)NC(=O)[C@H](Cc2ccc(F)cc2)NC(=O)[C@H](Cc2ccccc2)NC(=O)[C@H](Cc2ccccc2)NC(=O)[C@H](CC(C)C)NC1=O [compound 11] ({Biotin-PEG10}-[Pra]LLFF[Phe(4-F)][Lys(N3)]-NH2; triazole 1-7)
Relative affinity (ratio of ELISA signal versus cy(LLFFF)) ([1]; ELISA 3, [MrkA] 50 nM): 0.88 | Isocratic point (%) [2]: 75.53%

C[C@@H](O)[C@@H]1NC(=O)[C@@H](NC(=O)CCOCCOCCOCCOCCOCCNC(=O)CCCC[C@@H]2SC[C@@H]3NC(=O)N[C@@H]32)Cc2cn(nn2)CCCC[C@@H](C(N)=O)NC(=O)[C@H](Cc2ccccc2)NC(=O)[C@H](Cc2ccccc2)NC(=O)[C@H](Cc2ccccc2)NC(=O)[C@H]([C@@H](C)O)NC1=O [compound 13] ({Biotin-PEG5}-[Pra]TTFFF[Lys(N3)]-NH2; triazole 1-7)
Relative affinity (ratio of ELISA signal versus cy(LLFFF)) ([1]; ELISA 4, [MrkA] 100 nM): 0.04 | Isocratic point (%) [2]: 53.40%

CC(C)C[C@@H]1NC(=O)[C@@H](NC(=O)CCOCCOCCOCCOCCOCCOCCOCCOCCOCCOCCNC(=O)[C@H](CCCNC(=N)N)NC(=O)[C@H](CCCNC(=N)N)NC(=O)[C@H](CCCNC(=N)N)NC(=O)CCOCCOCCOCCOCCOCCOCCOCCOCCOCCOCCNC(=O)CCCC[C@@H]2SC[C@@H]3NC(=O)N[C@@H]32)Cc2cn(nn2)CCCC[C@@H](C(N)=O)NC(=O)[C@H](Cc2ccccc2)NC(=O)[C@H](Cc2ccccc2)NC(=O)[C@H](Cc2ccccc2)NC(=O)[C@H](CC(C)C)NC1=O [compound 16] ({Biotin-PEG10}-RRR[PEG10][Pra]LLFFF[Lys(N3)]-NH2; triazole 5-11)
Relative affinity (ratio of ELISA signal versus cy(LLFFF)) ([1]; ELISA 5, [MrkA] 25 nM): 0.90 | Isocratic point (%) [2]: 45.02%

CC(C)C[C@@H]1NC(=O)[C@@H](NC(=O)CCOCCOCCOCCOCCOCCOCCOCCOCCOCCOCCNC(=O)[C@H](CCCNC(=N)N)NC(=O)[C@H](CCCNC(=N)N)NC(=O)[C@H](CCCNC(=N)N)NC(=O)[C@H](CCCNC(=N)N)NC(=O)[C@H](CCCNC(=N)N)NC(=O)[C@H](CCCNC(=N)N)NC(=O)CCOCCOCCOCCOCCOCCOCCOCCOCCOCCOCCNC(=O)CCCC[C@@H]2SC[C@@H]3NC(=O)N[C@@H]32)Cc2cn(nn2)CCCC[C@@H](C(N)=O)NC(=O)[C@H](Cc2ccccc2)NC(=O)[C@H](Cc2ccccc2)NC(=O)[C@H](Cc2ccccc2)NC(=O)[C@H](CC(C)C)NC1=O [compound 17] ({Biotin-PEG10}-RRRRRR[PEG10][Pra]LLFFF[Lys(N3)]-NH2; triazole 8-14)
Relative affinity (ratio of ELISA signal versus cy(LLFFF)) ([1]; ELISA 5, [MrkA] 25 nM): 1.22 | Isocratic point (%) [2]: 39.82%

CC(C)C[C@@H]1NC(=O)[C@H](CCCNC(=N)N)NC(=O)[C@H](Cc2c[nH]cn2)NC(=O)[C@H](C(C)C)NC(=O)CNC(=O)[C@@H](NC(=O)CCOCCOCCOCCOCCOCCNC(=O)CCCC[C@@H]2SC[C@@H]3NC(=O)N[C@@H]32)Cc2cn(nn2)CCCC[C@@H](C(N)=O)NC1=O [cy(GVHRL)] ({Biotin-PEG5}-[Pra]GVHRL[Lys(N3)]-NH2; triazole 1-7)
affinities to MrkA [1]: ~1 µM | binding to full-length MrkA compared to cy(LLFFF) [1]: lower affinities

C[C@@H](O)[C@@H]1NC(=O)[C@@H](NC(=O)CCOCCOCCOCCOCCOCCNC(=O)CCCC[C@@H]2SC[C@@H]3NC(=O)N[C@@H]32)Cc2cn(nn2)CCCC[C@@H](C(N)=O)NC(=O)[C@H](Cc2ccccc2)NC(=O)[C@H](Cc2ccccc2)NC(=O)[C@H](Cc2ccccc2)NC(=O)[C@H]([C@@H](C)O)NC1=O [cy(TTFFF)] ({Biotin-PEG5}-[Pra]TTFFF[Lys(N3)]-NH2; triazole 1-7; N-terminus assumed)
affinities to MrkA [1]: ~1 µM | binding to full-length MrkA compared to cy(LLFFF) [1]: lower affinities

CC(C)C[C@@H]1NC(=O)[C@H](Cc2c[nH]cn2)NC(=O)[C@H](CCCNC(=N)N)NC(=O)[C@H](Cc2ccc(O)cc2)NC(=O)[C@@H](NC(=O)CCOCCOCCOCCOCCOCCNC(=O)CCCC[C@@H]2SC[C@@H]3NC(=O)N[C@@H]32)Cc2cn(nn2)CCCC[C@@H](C(N)=O)NC(=O)CNC1=O [cy(YRHLG)] ({Biotin-PEG5}-[Pra]YRHLG[Lys(N3)]-NH2; triazole 1-7)
affinities to MrkA [1]: ~1 µM | binding to full-length MrkA compared to cy(LLFFF) [1]: lower affinities

cy(ALFFF) (cyclic)
binding to full-length MrkA compared to cy(LLFFF) [1]: Modestly lower binding

cy(LAFFF) (cyclic)
binding to full-length MrkA compared to cy(LLFFF) [1]: Modestly lower binding

cy(LLAFF) (cyclic)
binding to full-length MrkA compared to cy(LLFFF) [1]: Modestly lower binding
